Data published in patent US12557829B2, “Liquid-phase, supplementary feed composition containing coenzyme Q10” (priority 2021, dated 2026).
Like-named read-outs stand apart in the source and are kept apart here.

Experiment: Single intravenous administration, plasma concentration of coenzyme Q10
Assay type: in vivo
Settings: rat, 6 mg/kg, rats
Experimental: The supplementary feed composition containing coenzyme Q10 was orally administered to rats for 5 consecutive days, and systemic absorption was examined after oral administration on the 5th day. In addition, a single intravenous injection test was performed to evaluate the absorption rate (bioavailability).
Single Intravenous Administration Experiment
Plasma concentration measurement after intravenous coenzyme Q10 administration: dose (6 mg/kg), measured up to 6 hours
Plasma Collection after Intravenous Administration
After lightly anesthetizing the rats with ether, a polyethylene tube (PE-50, Intramedic, Clay Adams, USA) was intubated into the left femoral artery and vein. After the rats recovered from anesthesia, coenzyme Q10 was intravenously administered (6 mg/kg), and blood was collected from the left femoral artery at 0 (blank), 1, 5, 10, 15, 30, 60, 90, 120 and 180 minutes. 250 μl of blood was received in a microtube, and 100 μl of plasma obtained after centrifugation was used for quantification.
Quantification of the Concentration of Coenzyme Q10 in Plasma
For coenzyme Q10, a calibration curve was prepared in which a good linear relationship (R=0.999) was established in the concentration range of 0.05 μg/mL to 10 μg/mL. […] 100 μL of this was taken and quantified by the HPLC assay described above.

COC1=C(OC)C(=O)C(C/C=C(\C)CC/C=C(\C)CC/C=C(\C)CC/C=C(\C)CC/C=C(\C)CC/C=C(\C)CC/C=C(\C)CC/C=C(\C)CC/C=C(\C)CCC=C(C)C)=C(C)C1=O [coenzyme Q10, 2,3-dimethoxy-5-methyl-6-decaprenyl-1,4-benzoquinone]
half-life (read-out: half-life (t1/2,α) in the pre-distribution phase (α phase)): 3.3 min
half-life (read-out: half-life (t1/2,β) in the post-distribution phase (β phase)): 52 min
